From patent US20260364186A1, “Chemical Conjugates, Compositions, and Methods of Preparation and Use Thereof” (Transfection Holdings Limited, priority 2022, published 2026)
Entries after “also recorded” stand apart in the source; their conditions may differ.

Key:
[1] = tested on: NZM11 melanoma cancer cell line; experiment: FACS uptake of BODIPY FL conjugates, 50 nM, 5 min (Example 1); type: cell-based, human
Procedure: FIG. 1. Conjugate compounds coupled to BODIPY FL were tested for uptake using 50 nM each conjugate and 5 minute incubation with HEM (human epidermal melanocytes) and melanoma cell line NZM11 (BRAF V600E mutant metastatic melanoma). Mean fluorescent intensities (MFI). For these tests, n=300-500, mean±SD. Results were from a single experiment done in triplicate. Cells were sorted by FACS.
Materials and methods: NZM11 is an adherent metastatic melanoma cell derived from a patient with a subcutaneous lesion on their mid back. This human metastatic melanoma is identified with code CBA-1398 from Cell bank Australia. […] Cells of NZM11 diluted in MEMα media and cells of HEMnDP (primary melanocyte cell line) diluted in media 254 were left to settle in 96-wells microplate for 48 hours. 10 μL of 10 mM stock solutions in DMSO from 138 and pantothenic acid/pantothenic acid derivatives coupled to BODIPY were diluted with HBSS to afford 100 nM solution. Then, 100 nM compounds and DMSO solutions were diluted 1:1 with MEMα media for NZM11 and media 254 for HEMnDP to afford 50 nM solutions. After the 48 hour settle time, media was removed from the cells and 200 μL of 50 nM media solutions were poured to each well and incubated for 5 minutes at 37 °C. […] The FACS results output represented the mean of the fluorescence intensities (in arbitrary units) measured for cells sorted in every sample

[2] = tested on: mouse embryonic fibroblasts MEF; experiment: FACS uptake of BODIPY FL conjugates (Example 4); type: cell-based; conditions: 200 nM, 5 min, S enantiomer vs R
Procedure: FIG. 4B: Conjugate compounds coupled to BODIPY FL were tested for uptake using 200 nM each conjugate and 5 minute incubation with mouse embryonic fibroblasts MEF. Mean fluorescent intensities (MFI). 1,000 cells were sorted by FACS.
Fibroblasts are ubiquitous mesenchymal cells that are thought to play important roles in wound repair and healing, and serve as reservoirs of multipotent progenitors capable of repopulating depleted cell compartments. Primary mouse embryonic fibroblast (MEF) cultures consist of highly heterogeneous populations of distinct cell types. Singhal, P. K., et al., 2016. MEF cells have a limited growth capacity and on prolonged passaging spontaneously immortalize at a low frequency. In contrast to transformation of primary MEF cells that requires the presence of two cooperating oncogenes, immortalised MEF cells can be transformed by a single oncogene (Ras) resulting in a loss of contact inhibition, anchorage-independent growth, and tumour formation in nude mice. Studies of MEF cells have played an important role in the elucidation of the molecular mechanisms underlying cellular immortalization, transformation, and tumorigenesis. Additionally, utilization of MEF cells disrupted for specific genes has provided a powerful tool to analyse the genetic regulation of these cellular processes. Sun and Taneja, 2007. […]

[3] = tested on: NZM011, NZM009, NZM012, NZM022 and NZM077 cells; experiment: Flow cytometry uptake into metastatic melanoma lines (Example 11); type: cell-based, human; conditions: 200 nM, 30 minutes, five cell lines
Procedure: FIG. 11: Uptake for compounds 124, 126, and 132 at 200 nM and 30 minute incubation with melanoma cell lines: NZM12 (NZM012) (BRAF V600E mutant metastatic melanoma, homozygous deletion CDKN2A and low invasive cell line), NZM77 (NZM077) (BRAF V600E mutant metastatic melanoma and missense NF1), NZM22 (NZM022) (BRAF G466A mutant metastatic melanoma, P53 241S/T mutant, NF1 non-frameshift insertion and PTEN epigenetic silencing). NZM9 (NZM009) (P53 179C/T mutant and homozygous silencing CDKN2A). NZM11 (NZM011) (BRAF V600E mutant metastatic melanoma and homozygous deletion CDKN2A), as positive control. Mean fluorescent intensities (MFI). 1,500-2,000 cells were obtained. Bars represent mean±SD. Results are from a single experiment done in triplicate. Cells were analysed by FACS.
Methods: For screening, NZM011, NZM009, NZM012, NZM022 and NZM077 cells were suspended at 250 cells per μL in MEMα media and 200 μL was dispensed into 96 well plates. The cells were left to settle for 24 hours for NZM011, NZM012 and NZM077 and 48 hours for NZM009 and NZM022 at 37 °C, 5% O2, 5% CO2. Before addition to the cells, 10 μL of 10 mM stock solutions in DMSO of compounds 124, 126, and 132 were diluted with 1% FBS MEMα media to give a 200 nM solution.
After the appropriate settle time, the media was removed from the 96 well plates and 200 μL of 200 nM conjugate solutions and DMSO control were dispensed to each well (in triplicate) and incubated for 30 minutes at 37 °C, 5% O2, 5% CO2. After 30 minutes, the media was removed and cells washed with PBS. Next, 100 μL of TrypLE trypsin (ThermoFisher Scientific) was added to each well and incubated for 5 minutes at 37 °C. After this, 150 μL of MEMα media (plus 1% FBS for NZM011, NZM012 and NZM077; plus 5% FBS for NZM009 and NZM022) were added. Cells were analysed by flow cytometry using a FACS biosort and FITC filter. Flow cytometry results represent the mean of the fluorescence intensities (in arbitrary units) measured for cells sorted in every sample.

Jurkat cells = experiment: Flow cytometry time course of uptake (Example 12); type: cell-based, human; conditions: 200 nM
Procedure: FIG. 12: Time course of uptake for compounds 124, 126, and 132 at 200 nM after 5, 30 or 60 minute incubation with Jurkat cells. Mean fluorescent intensities (MFI). 1,000 cells were sorted by FACS. Bars represent mean±SD. Results represents a single experiment done in triplicate.
Materials and methods: For this study, 7.7×10^5 Jurkat cells were centrifuged for 5 minutes at 2500 RPM. The supernatant was removed and the cells were diluted in RPMI media (supplemented with 1% FBS+1% penicillin-streptomycin) to 400 cells/μL. Next, 28 μL of 100 μM stock solutions from compound 124, 126, or 132 were diluted with 6972 μL of RPMI media (supplemented with 1% FBS+1% penicillin-streptomycin) to give a 400 nM solution. Following this, 250 μL of conjugate solutions (giving a 200 nM final concentration) and 250 μL of cell suspensions were then added to each well in a 96 well plate. In addition, 250 μL of media only was added to the DMSO control wells. Incubation was carried out for 5, 30 and 60 minutes at 37 °C in triplicate wells for each compound and time point.
After incubation, cells were centrifuged for 1.5 minutes at 5000 RCF. Supernatant was removed and the cell pellet re-suspended in 200 μL fresh RPMI media, transferred to 96 well-plate and each cell suspension analysed by flow cytometry. Flow cytometry results represent the mean of the fluorescence intensities (in arbitrary units) measured for cells sorted in every sample.

glioblastoma cells = experiment: Protein content after 48 hour incubation (Example 9); type: cell-based, human; conditions: 5, 25 and 100 μM
Procedure: FIGS. 10A-10B: Protein content of glioblastoma cells after 48 hour incubation with compound 138 or PA at 5, 25 and 100 μM final concentration. To indicates protein levels at the beginning of the test. Control indicates protein levels in cells which were incubated for 48 hours without exposure to 138 or PA.
(§1) Glioblastoma cells were used to determine viability and growth by measurement of protein levels. Protein content of glioblastoma cells was determined after 48 hour incubation with compound 138 or PA at 5, 25 and 100 μM final concentration. For To, protein levels were determined at the start of the test (before addition of test compounds). For the control, protein levels were determined for cells incubated for 48 hours in the absence of the test compounds. Astrocytes were used as a non-cancer cell line control. U87: this cell line has epithelial morphology that was isolated from malignant gliomas from a patient, likely with glioblastoma. SF188: this glioblastoma cell line was derived from the left temporal lobe tumour of a patient. U251: this cell line expresses epidermal growth factor receptor (EGFR) receptors, for inhibition studies. LN229: This cell line has a mutation on TP53; Simple; p.Pro98Leu. LN18: This cell line is negative for glial fibrillary acidic proteins and S100 (S-100) protein. […] GUVW cells were also utilised.

astrocytes = experiment: as above; type: cell-based, human; conditions: 5, 25 and 100 μM
Procedure: as §1

melanoma cell lines = conditions: previous results, read-out: concentration showing inhibition of 50% of the population; cited from earlier work
[4] = tested on: NZM11 (BRAF V600E mutant metastatic melanoma) cells; experiment: Sulforhodamine B (SRB) assay of viability / proliferation, auranofin conjugates (Example 8); type: cell-based, human; conditions: 200 μM, 48 hours
Procedure: FIG. 8: Effect of 136 and 137 (auranofin conjugates) on viability of NZM11 melanoma cells. Cells were incubated with 136 and 137 at 10 μM final concentration and kept at 37 °C for 48 hours. Pantothenic acid (PA), CJ-15,801, and biotin were tested at 200 μM final concentration. […] Two batches of auranofin were tested at 10 μM final concentration.
FIG. 9: The viability data from FIG. 8 was normalised to the treatment plate and DMSO control and plotted as a percentage of cell growth. Individual data points represent technical replicates. Curve indicates non-linear regression slope, which allows determination of IC50 values.
Materials and methods: NZM11 cells were cultured in MEMα media with an initial count of 1020 cells/μL. The cells were then diluted to get 25 cells per μL and 200 μL of this suspension (5000 cells per well), dispensed into 96 well plates and left to settle for 24 hours. 10 mM stock solutions of 136, 137, and auranofin were diluted with 1% FBS MEMα media to give 10 nM, 30 nM, 100 nM, 300 nM, 1 μM, 3 μM, 10 μM, 30 μM and 100 μM solutions. After 24 hours the media was removed from the 96 well plates. To individual wells 200 μL of each dilution were dispensed in triplicate for three groups (136, 137, and auranofin): 1% FBS MEMα media only (DMSO control), 10 nM, 30 nM, 100 nM, 300 nM, 1 μM, 3 μM, 10 μM, 30 μM and 100 μM. The cells were incubated at 37 °C, 5% 02 and 5% CO2 for 48 hours.
In order to test the potency of 136 and 137, the IC50 values were calculated for these auranofin conjugates. For analysis of the treatment plate (Tz) a SRB assay was utilised. For this assay, 50 μL of 50% (w/v) ice-cold trichloroacetic acid (TCA) was added to each well. To achieve this, 5 g of TCA was made up to 10 mL with milliQ H2O. This was cooled on ice. Incubation was carried out for 1 hour at 4 °C to fix cells. TCA and media were removed from cells. Five milliQ washes were carried out and the plate was left to air dry. Next, 50 μL of 0.4% SRB solution (prepared in 1% acetic acid) was added to each well and incubated for 10 minutes at room temperature. The SRB solution was removed and five milliQ washes were carried out. Then, 100 μL of 10 mM Tris solution was added to each well, and the dye was solubilised. Absorbance at 515 nm was read on plate reader. Data was normalized to Tz plate, as per NCI60 screening method (https://dtp.cancer.gov/discovery_development/nci-60/methodology.htm).

For `CC1=CC(C)=[N+]2C1=Cc1ccc(CCCn3cc(CCNC(=O)/C=C/NC(=O)[C@@H](O)C(C)(C)CO)nn3)n1[B-]2(F)F` [Compound 126, (E)-N-((((3-[4,4-Difluoro-5,7-dimethyl-4-bora-3a,4a-diaza-s-indacene-3-yl]propyl)-1H-1,2,3-triazol-4-yl)ethylamino)-3-oxoprop-1-enyl)-2,4-dihydroxy-3,3-dimethylbutanamide], the “mean intensity compared to the 124 conjugate” value [1] was 25%, the “lower intensities than the R derivatives” value [2] was “around 50%” and the “times less uptake than 124” value [3] was 5-12 times. For the same compound, the “time of highest uptake” value (Jurkat cells) was 60 min, the “times lower than 124 uptake” value (Jurkat cells; 60 minutes) was 4 times and the “uptake increase compared to DMSO control” value (Jurkat cells; 60 minutes) was “three times higher”.

With `CC(C)(CO)[C@@H](O)C(=O)NCCC(=O)O` [pantothenic acid] the “protein content / protein levels” value (glioblastoma cells) was “comparable content of proteins with the control; also recorded: little to no effect on protein levels” and the “protein content / protein levels” value (astrocytes) was “comparable content of proteins with the control; also recorded: little to no effect on protein levels”.

In the case of `CC[P](CC)(CC)=[Au][S][C@@H]1O[C@H](COC(C)=O)[C@@H](OC(C)=O)[C@H](OC(C)=O)[C@H]1OC(C)=O` [auranofin], the IC50 (melanoma cell lines) is listed as at most 500 nM.

In the case of `CC(C)(CO)[C@@H](O)C(=O)N/C=C/C(=O)O` [Compound 138, (R,E)-3-(2,4-Dihydroxy-3,3-dimethylbutanamido)acrylic acid], the “viability / cell proliferation” value [4] is reported as “little to no effect on cell proliferation”, the “protein content / protein levels” value (glioblastoma cells) is reported as “little to no effect on protein levels” and the “protein content / protein levels” value (astrocytes) is reported as “little to no effect on protein levels”.
